How the values were obtained:
Type in all cases: binding
Settings in all cases: relative to 6′SLN = 1, KD based on concentration of sialic acid residues, averaged
[1] = test system: influenza virus A/Nib/23/89M-MA (H1N1)
[2] = test system: influenza virus A/Nib/26/90M (H3N2)
[3] = test system: influenza virus B/Nib/48/90M

Neu5Acα2-6Galβ1-4GlcNAcβ-O— [6′SLN, reference compound]
1: Relative inhibitory activity of tetraligand constructs [1] | Relative inhibitory activity of triligand constructs [1] | Relative inhibitory activity of tetraligand constructs [2] | Relative inhibitory activity of triligand constructs [2] | Relative inhibitory activity of tetraligand constructs [3] | Relative inhibitory activity of triligand constructs [3]

From patent US8674061B2, “Multiligand constructs” (priority 2008, dated 2014)
